Test results published in the NIST ThermoML archive (doi:10.1016/j.jct.2016.07.041).

Test: xn = mol fraction of the nth substance listed
Details: 101 kPa, Liquid; for viscosity: Capillary tube (Ostwald / Ubbelohde) method; for mass density: Vibrating tube method

CCCCn1cc[n+](C)c1.F[B-](F)(F)F [1-butyl-3-methylimidazolium tetrafluoroborate] + O
Details	mass density, 293.15 K [kg/m3]	mass density, 303.15 K [kg/m3]	mass density, 313.15 K [kg/m3]	mass density, 323.15 K [kg/m3]	mass density, 333.15 K [kg/m3]	viscosity, 293.15 K [mPa·s]	viscosity, 303.15 K [mPa·s]	viscosity, 313.15 K [mPa·s]	viscosity, 323.15 K [mPa·s]	viscosity, 333.15 K [mPa·s]
x1 = 0.0998	1103.7	1097.3	1090.3	1083.4	1076.4	3.23	2.41	1.88	1.51	1.24
x1 = 0.1998	1141.5	1134.5	1126.9	1119.6	1112.2	5.52	4.12	3.2	2.56	2.1
x1 = 0.2994	1161.1	1153.8	1146.3	1139	1131.5	8.41	6.21	4.78	3.79	3.1
x1 = 0.3992	1173.4	1166	1158.7	1151.4	1144	12.3	8.95	6.79	5.34	4.31
x1 = 0.5005	1182.3	1175	1167.7	1160.5	1153.3	17.96	12.87	9.63	7.5	6
x1 = 0.5984	1188.9	1181.6	1174.3	1167.1	1160.1	25.98	18.1	13.27	10.11	7.99
x1 = 0.6985	1194.2	1187	1179.8	1172.6	1165.7	39.21	26.48	18.9	14.06	10.79
x1 = 0.7988	1198.5	1191.4	1184.3	1177.1	1170	59.53	38.86	26.55	19.05	14.31
x1 = 0.8982	1202	1195	1187.8	1180.6	1173.6	89.35	55.67	37.01	25.16	18.53
x1 = 1	1205.1	1198	1190.8	1183.7	1176.8	139.12	82.49	52.33	35.16	24.69

NCCO [2-aminoethan-1-ol] + CCCCn1cc[n+](C)c1.F[B-](F)(F)F
Details	mass density, 293.15 K [kg/m3]	mass density, 303.15 K [kg/m3]	mass density, 313.15 K [kg/m3]	mass density, 323.15 K [kg/m3]	mass density, 333.15 K [kg/m3]	viscosity, 293.15 K [mPa·s]	viscosity, 303.15 K [mPa·s]	viscosity, 313.15 K [mPa·s]	viscosity, 323.15 K [mPa·s]	viscosity, 333.15 K [mPa·s]
x2 = 0	1015.5	1007.6	999.7	991.7	983.6	23.65	14.75	9.78	6.81	4.99
x2 = 0.1001	1065.1	1057.3	1049.3	1041.4	1033.4	26.23	16.27	10.72	7.39	5.38
x2 = 0.2	1098.6	1090.6	1082.8	1075	1067.2	29.02	17.98	11.84	8.21	6.02
x2 = 0.2999	1123	1115.4	1107.6	1099.8	1092.1	32.91	20.36	13.45	9.29	6.82
x2 = 0.3751	1137.9	1130.3	1122.5	1114.8	1107.1	36.29	22.48	14.89	10.41	7.57
x2 = 0.5002	1157.4	1149.9	1142.3	1134.7	1127.1	43.39	26.71	17.78	12.4	9.11
x2 = 0.5997	1169.7	1162.5	1154.9	1147.4	1139.9	51.66	31.82	20.98	14.53	10.6
x2 = 0.6996	1180.2	1173	1165.4	1158.2	1150.7	61.28	37.57	24.39	17.03	12.51
x2 = 0.8	1189.4	1182.3	1174.8	1167.5	1160.3	75.78	46.5	30.43	21.12	15.41
x2 = 0.9003	1197.8	1190.6	1183.4	1176.1	1169.1	98.71	59.85	39.19	26.65	19.22

NCCO [2-aminoethan-1-ol] + O
Details	mass density, 293.15 K [kg/m3]	mass density, 303.15 K [kg/m3]	mass density, 313.15 K [kg/m3]	mass density, 323.15 K [kg/m3]	mass density, 333.15 K [kg/m3]	viscosity, 293.15 K [mPa·s]	viscosity, 303.15 K [mPa·s]	viscosity, 313.15 K [mPa·s]	viscosity, 323.15 K [mPa·s]	viscosity, 333.15 K [mPa·s]
x1 = 0.0996	1010.9	1006.8	1002.1	996.9	991.2	2.54	1.89	1.45	1.15	0.93
x1 = 0.1991	1021.6	1016.1	1010.2	1004	997.6	5.52	3.84	2.8	2.09	1.62
x1 = 0.2986	1027.4	1021	1014.4	1007.5	1000.4	10.06	6.65	4.62	3.35	2.52
x1 = 0.3977	1029.4	1022.5	1015.4	1007.8	1000.6	15.1	9.64	6.52	4.66	3.41
x1 = 0.4967	1028.9	1021.5	1014.2	1006.6	999	19.57	12.22	8.1	5.67	4.09
x1 = 0.5958	1027	1019.4	1011.9	1004.3	996.5	22.91	14.08	9.33	6.46	4.65
x1 = 0.6946	1024.4	1016.8	1009	1001.2	993.4	24.48	15.01	9.75	6.9	4.95
x1 = 0.7932	1021.6	1013.8	1006	998.2	990.2	25	15.36	9.98	6.91	4.99
x1 = 0.8919	1018.7	1010.8	1002.9	995	987	24.58	15.16	9.94	6.89	4.99
x1 = 1	1015.5	1007.6	999.7	991.7	983.6	23.65	14.75	9.78	6.81	4.99
